This is an account of results in patent US8420670B2 (Abbott Laboratories, priority 2007, dated 2013).

As a reminder, the pKi is the negative decadic logarithm of the Ki, by convention in mol/L. By pIC50 is commonly meant the IC50 on a negative log10 scale, so that one unit is a factor of ten.

Structures are written as SMILES. pIC50, pKi: −log10 of the molar value. Some results are limits rather than exact numbers.

One test addresses T1, human GlyT1c transporter (Homo sapiens, UniProt P48067).
T1 construct: expressed in transfected cells; host or cells: recombinant hGlyT1-expressing cells
T1 sequence (P48067 1-706): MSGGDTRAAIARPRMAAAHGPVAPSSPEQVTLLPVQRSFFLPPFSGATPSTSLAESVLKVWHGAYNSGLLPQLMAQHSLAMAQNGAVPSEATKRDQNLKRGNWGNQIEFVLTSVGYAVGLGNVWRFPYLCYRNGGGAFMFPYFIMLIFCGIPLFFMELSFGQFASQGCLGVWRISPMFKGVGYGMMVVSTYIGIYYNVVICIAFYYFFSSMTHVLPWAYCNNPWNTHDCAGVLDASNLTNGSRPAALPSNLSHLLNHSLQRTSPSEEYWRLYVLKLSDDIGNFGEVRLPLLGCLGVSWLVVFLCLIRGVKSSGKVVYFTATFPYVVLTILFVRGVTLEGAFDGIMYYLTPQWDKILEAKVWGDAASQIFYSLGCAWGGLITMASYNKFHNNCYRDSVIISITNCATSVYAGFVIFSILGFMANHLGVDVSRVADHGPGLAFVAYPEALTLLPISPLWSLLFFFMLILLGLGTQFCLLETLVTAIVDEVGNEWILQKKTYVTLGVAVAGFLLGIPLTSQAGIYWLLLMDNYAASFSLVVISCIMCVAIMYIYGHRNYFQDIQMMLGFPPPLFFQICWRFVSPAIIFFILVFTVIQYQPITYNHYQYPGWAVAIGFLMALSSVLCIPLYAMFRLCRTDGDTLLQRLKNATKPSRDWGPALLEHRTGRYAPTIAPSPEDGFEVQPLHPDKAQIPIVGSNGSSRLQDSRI
The test can be described thus: [3H]-(R)-NPTS radioligand binding assay using recombinant hGlyT1 expressing cell membranes. The following applies: 0.5 nM [3H]-(R)-NPTS, apparent Ki via Cheng-Prusoff, read-out: [3H]-(R)-NPTS bindung Ki. In a few lines:
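Membranes expressing human GlyT1c (50 μg/ml protein) were incubated with 0.5 nM [3H]-(R)-NPTS in pH 7.5 HEPES/NaCl buffer with 1% DMSO for 1 h at room temperature, then filtered. Non-specific binding was defined with 10 μM Org24598, and IC50 values were converted to apparent Ki by Cheng-Prusoff.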

The target of a further test is T2, Human GlyT1c (Homo sapiens, UniProt P48067).
T2 construct: expressed in transfected cells; host or cells: CHO (hGlyT1c_5_CHO clone)
T2 sequence (P48067 1-706): T1 sequence (P48067 1-706)
The test can be described thus: Glycine uptake in recombinant hGlyT1 expressing cells. The test is classed as cell-based. As to conditions: hGlyT1c_5_CHO cells; [3H]-glycine uptake, 60-120 min. In a few lines:
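Recombinant hGlyT1c CHO cells were washed in HBSS with 5 mM L-alanine, then given inhibitor and [3H]-glycine. Uptake was counted continuously by solid-phase scintillation for up to 3 h, with nonspecific uptake defined by 10 μM Org24598. IC50 came from four-parameter logistic fits over the linear 60–120 min range.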

For `COc1cccc2c(NC(c3ccncc3)c3ccc(Cl)cc3)cc(C)nc12` (stereo not drawn) [Example 73, [(4-Chlorophenyl)-pyridin-4-ylmethyl]-(8-methoxy-2-methylquinolin-4-yl)-amine], at human GlyT1c transporter, the pKi was at least 6.00. For the same compound, the negative logarithm of the IC50 (pIC50) on Human GlyT1c was at least 6.00.

For `COc1cccc2c(NC(C(N)=O)c3ccccc3)cc(C)nc12` (stereo not drawn) [Example 74, 2-(8-Methoxy-2-methylquinolin-4-ylamino)-2-phenylacetamide], on human GlyT1c transporter, the pKi is at least 5.00. Moreover, the negative-log IC50 (pIC50) on Human GlyT1c is at least 3.00.

As for `COc1cccc2c(NC(CN)c3ccccc3)cc(C)nc12` (stereo not drawn) [Example 75, N*1*-(8-Methoxy-2-methylquinolin-4-yl)-1-phenylethane-1,2-diamine], the pKi on human GlyT1c transporter was at least 6.00. Also, on Human GlyT1c, the pIC50 is at least 6.00.

Take `COc1cccc2c(N[C@H](CN(C)C)c3ccc(Cl)cc3)cc(C)nc12` [Example 76, (S)-1-(4-Chlorophenyl)-N*1*-(8-methoxy-2-methylquinolin-4-yl)-N*2*,N*2*-dimethylethane-1,2-diamine]: the pKi on human GlyT1c transporter was at least 9.00. Further, on Human GlyT1c, the pIC50 was at least 7.00.

With `COc1cccc2c(N[C@@H](CN(C)C)c3ccc(Cl)cc3)cc(C)nc12` [Example 77, (R)-1-(4-Chlorphenyl)-N*1*-(8-methoxy-2-methylquinoline-4-yl)-N*2*,N*2*-dimethylethane-1,2-diamin], the pKi at human GlyT1c transporter is at least 6.00. The pIC50 on Human GlyT1c is at least 5.00.

For the compound `COc1cccc2c(NC(CNCc3ccccc3)c3ccccc3)cc(C)nc12` (stereo not drawn) [Example 78, N*2*-Benzyl-N*1*-(8-methoxy-2-methylquinolin-4-yl)-1-phenylethane-1,2-diamine], the pKi at human GlyT1c transporter was at least 6.00. Further, the pIC50 on Human GlyT1c is at least 5.00.

`COc1cccc2c(NC(CNC(C)C)c3ccccc3)cc(C)nc12` (stereo not drawn) [Example 79, N*2*-Isopropyl-N*1*-(8-methoxy-2-methylquinolin-4-yl)-1-phenylethane-1,2-diamine]: on human GlyT1c transporter, the pKi was at least 5.00. Further, on Human GlyT1c, the pIC50 was at least 5.00.

With `COc1cccc2c(NCc3ccc(C(F)(F)F)c(Cl)c3)cc(C)nc12` [Example 80, (3-Chloro-4-trifluoromethylbenzyl)-(8-methoxy-2-methylquinolin-4-yl)-amine], the pKi on human GlyT1c transporter is at least 6.00. For the same compound, the pIC50 on Human GlyT1c is at least 6.00.

As to `Cc1cc(NCc2ccc(Cl)c(Cl)c2)c2cccc(Cl)c2n1` [Example 81, (8-Chlor-2-methylquinolin-4-yl)-(3,4-dichlorobenzyl)-amine], the pKi at human GlyT1c transporter is at least 7.00. Further, the pIC50 on Human GlyT1c was at least 6.00.

On to `Cc1cc(NCc2ccc(Cl)c(Cl)c2)c2cccc(F)c2n1` [Example 82, (3,4-Dichlorobenzyl)-(8-fluoro-2-methylquinolin-4-yl)-amine], for which the negative logarithm of the Ki (pKi) at human GlyT1c transporter was at least 6.00. Also, the pIC50 at Human GlyT1c was at least 6.00.

On to `CSc1cccc2c(NCc3ccc(Cl)cc3)cc(C)nc12` [Example 83, (4-Chlorobenzyl)-(2-methyl-8-methylsulfanylquinolin-4-yl)-amine], for which the pKi at human GlyT1c transporter is at least 6.00. For the same compound, the pIC50 at Human GlyT1c was at least 6.00.

For the compound `COc1cccc2c(NCc3ccc(Cl)cc3)cc(C)nc12` [Example 84, (4-Chlorobenzyl)-(2-methyl-8-methoxyquinolin-4-yl)amine], the pKi at human GlyT1c transporter was at least 6.00. Also, the pIC50 at Human GlyT1c was at least 6.00.

On to `Cc1cc(NCc2ccc(F)c(F)c2)c2cccc(C)c2n1` [Example 85, (3,4-Difluoro-benzyl)-(2,8-dimethyl-quinolin-4-yl)-amine], for which the pKi at human GlyT1c transporter was at least 6.00. Also, on Human GlyT1c, the pIC50 was at least 6.00.

Consider `CSc1cccc2c(NCc3ccc(F)c(F)c3)cc(C)nc12` [Example 86, (3,4-Difluorobenzyl)-(2-methyl-8-methylsulfanylquinolin-4-yl)-amine], for which the pKi on human GlyT1c transporter was at least 6.00. In addition, on Human GlyT1c, the pIC50 was at least 6.00.

As to `Cc1cc(NCc2ccc(Cl)c(Cl)c2)c2cccc(C)c2n1` [Example 87, (3,4-Dichlorobenzyl)-(2-methyl-8-methylquinolin-4-yl)-amine], the pKi at human GlyT1c transporter is at least 7.00. Further, the pIC50 on Human GlyT1c was at least 7.00.

Take `CSc1cccc2c(NCc3ccc(Cl)c(Cl)c3)cc(C)nc12` [Example 88, (3,4-Dichlorobenzyl)-(2-methyl-8-methylsulfanylquinolin-4-yl)-amine]: the pKi on human GlyT1c transporter was at least 7.00. Also, on Human GlyT1c, the pIC50 is at least 7.00.

On to `Cc1cc(NCc2ccc(Cl)c(Cl)c2)c2ccccc2n1` [Example 89, (3,4-Dichlorobenzyl)-(2-methylquinolin-4-yl)-amine], for which the pKi at human GlyT1c transporter was at least 7.00. On Human GlyT1c, the pIC50 is at least 6.00.

As for `Cc1cc(NCc2ccc(F)cc2)c2ccccc2n1` [Example 90, (4-Fluorobenzyl)-(2-methylquinoline-4-yl)-amine], on human GlyT1c transporter, the pKi was at least 6.00. The pIC50 on Human GlyT1c is at least 6.00.

Regarding `Cc1cc(NCc2cccc(Cl)c2Cl)c2ccccc2n1` [Example 91, (2,3-Dichloro-benzyl)-(2-methylquinolin-4-yl)-amine], the pKi at human GlyT1c transporter was at least 5.00. Also, on Human GlyT1c, the pIC50 is at least 5.00.

As for `Cc1cc(NCc2ccc(Cl)c(Cl)c2)c2cccc([S+](C)[O-])c2n1` (stereo not drawn) [Example 92, (3,4-Dichlorobenzyl)-(8-methanesulfinyl-2-methylquinolin-4-yl)-amine], at human GlyT1c transporter, the pKi is at least 6.00. Besides, the pIC50 at Human GlyT1c was at least 6.00.

For the compound `Cc1cc(NCc2ccc(Cl)c(Cl)c2)c2cccc(S(C)(=O)=O)c2n1` [Example 93, (3,4-Dichlorobenzyl)-(8-methanesulfonyl-2-methylquinolin-4-yl)-amine], at human GlyT1c transporter, the pKi is at least 6.00. Besides, the pIC50 at Human GlyT1c was at least 5.00.

For `CN(C)c1cc(NCc2ccccc2)c2ccccc2n1` [Example 94, N*4*-Benzyl-N*2*,N*2*-dimethylquinoline-2,4-diamine], at human GlyT1c transporter, the negative logarithm of the Ki (pKi) is at least 5.00. In addition, the pIC50 on Human GlyT1c was at least 4.00.

In the case of `CN(C)c1cc(NCc2ccc(Cl)c(Cl)c2)c2ccccc2n1` [Example 95, N*4*-(3,4-Dichlorobenzyl)-N*2*,N*2*-dimethylquinoline-2,4-diamine], the pKi on human GlyT1c transporter is at least 7.00. Moreover, the pIC50 at Human GlyT1c is at least 7.00.

Consider `CN(C)c1cc(NCc2ccc(Cl)cc2Cl)c2ccccc2n1` [Example 96, N*4*-(2,4-Dichlorobenzyl)-N*2*,N*2*-dimethylquinoline-2,4-diamin], for which the pKi on human GlyT1c transporter was at least 6.00. Further, the pIC50 on Human GlyT1c is at least 5.00.
